Measurements published in patent publication US20130072430A1, “METHODS FOR TREATMENT OR PROPHYLAXIS OF KIDNEY OR LIVER DYSFUNCTION” (NPS PHARMACEUTICALS, INC., priority 2010, published 2013).

System: Human patients with short bowel syndrome
Experiment: Example 2: liver biomarkers (albumin, gamma glutamyl transferase, total bilirubin, ALT, AST, ALP) in short bowel syndrome patients, every four weeks for 24 weeks
Type: in vivo
Conditions: 0.05 mg/kg/d; for Gamma Glutamyl Transferase Change from Baseline, Median / Gamma Glutamyl Transferase Observed Value, Mean / Gamma Glutamyl Transferase Observed Value, Median / ALKALINE PHOSPHATASE Change from Baseline, Median / ALT Change from Baseline, Mean / ALT Change from Baseline, Median / ALT Observed Value, Mean / ALT Observed Value, Median / AST Change from Baseline, Mean / AST Change from Baseline, Median / AST Observed Value, Mean / AST Observed Value, Median / Albumin Change from Baseline, Mean / Albumin Change from Baseline, Median / Albumin Observed Value, Mean / Albumin Observed Value, Median / Alkaline Phosphatase Change from Baseline, Mean / Alkaline Phosphatase Observed Value, Mean / Alkaline Phosphatase Observed Value, Median / Bilirubin Change from Baseline, Mean / Bilirubin Change from Baseline, Median / Bilirubin Observed Value, Mean / Bilirubin Observed Value, Median / Gamma Glutamyl Transferase Change from Baseline, Mean: n=40; for ALT >10% decrease from Baseline, % of subjects / ALT >10% decrease from Baseline, n subjects / ALT >10% increase from Baseline, % of subjects / ALT >10% increase from Baseline, n subjects / ALT Within 10% of Baseline, % of subjects / ALT Within 10% of Baseline, n subjects / AST >10% decrease from Baseline, % of subjects / AST >10% decrease from Baseline, n subjects / AST >10% increase from Baseline, % of subjects / AST >10% increase from Baseline, n subjects / AST Within 10% of Baseline, % of subjects / AST Within 10% of Baseline, n subjects / Albumin >10% decrease from Baseline, % of subjects / Albumin >10% decrease from Baseline, n subjects / Albumin >10% increase from Baseline, % of subjects / Albumin >10% increase from Baseline, n subjects / Albumin Within 10% of Baseline, % of subjects / Albumin Within 10% of Baseline, n subjects / Alkaline Phosphatase >10% decrease from Baseline, % of subjects / Alkaline Phosphatase >10% decrease from Baseline, n subjects / Alkaline Phosphatase >10% increase from Baseline, % of subjects / Alkaline Phosphatase >10% increase from Baseline, n subjects / Alkaline Phosphatase Within 10% of Baseline, % of subjects / Alkaline Phosphatase Within 10% of Baseline, n subjects / Bilirubin >10% decrease from Baseline, % of subjects / Bilirubin >10% decrease from Baseline, n subjects / Bilirubin >10% increase from Baseline, % of subjects / Bilirubin >10% increase from Baseline, n subjects / Bilirubin Within 10% of Baseline, % of subjects / Bilirubin Within 10% of Baseline, n subjects: m=40
Method: To further confirm the results of Example 1, a further study was conducted involving more individuals and additional diagnostic biomarkers. Human patients with short bowel syndrome were divided into two groups: a control group (43 total individuals) to receive placebo, and an experimental group (42 total individuals) to receive teduglutide at 0.05 mg/kg/day throughout the study. Patients were treated by subcutaneous injection of placebo or the appropriate dose of teduglutide. Known biomarkers of liver function were monitored every four weeks, for 24 weeks. The liver biomarkers tested included albumin, gamma glutamyl transferase, total bilirubin, ALT and AST and ALP. Before administration of placebo or teduglutide, diagnostic biomarker levels were tested to establish a baseline for each individual.
To determine the effect of GLP-2 on the levels of the diagnostic biomarkers, the average level of each biomarker was measured for the placebo and teduglutide treated groups for each visit. Furthermore, the average change from baseline was calculated using the established baseline values. For FIGS. 17-28, p-values were calculated using the t-test.
P values are provided, which were calculated for each distribution of biomarker changes for each week using the chi-squared test.

## CC[C@H](C)[C@H](NC(=O)[C@H](Cc1ccccc1)NC(=O)[C@H](CC(=O)O)NC(=O)[C@H](CCCNC(=N)N)NC(=O)[C@H](C)NC(=O)[C@H](C)NC(=O)[C@H](CC(C)C)NC(=O)[C@H](CC(N)=O)NC(=O)[C@H](CC(=O)O)NC(=O)[C@H](CC(C)C)NC(=O)[C@@H](NC(=O)[C@@H](NC(=O)[C@H](CC(N)=O)NC(=O)[C@H](CCSC)NC(=O)[C@H](CCC(=O)O)NC(=O)[C@H](CC(=O)O)NC(=O)[C@H](CO)NC(=O)[C@H](Cc1ccccc1)NC(=O)[C@H](CO)NC(=O)CNC(=O)[C@H](CC(=O)O)NC(=O)CNC(=O)[C@@H](N)Cc1c[nH]cn1)[C@@H](C)O)[C@@H](C)CC)C(=O)N[C@@H](CC(N)=O)C(=O)N[C@@H](Cc1c[nH]c2ccccc12)C(=O)N[C@@H](CC(C)C)C(=O)N[C@H](C(=O)N[C@@H](CCC(N)=O)C(=O)N[C@H](C(=O)N[C@@H](CCCCN)C(=O)N[C@H](C(=O)N[C@H](C(=O)N[C@@H](CC(=O)O)C(=O)O)[C@@H](C)O)[C@@H](C)CC)[C@@H](C)O)[C@@H](C)CC [teduglutide]
Week 2
  Gamma Glutamyl Transferase Change from Baseline, Median: 2.5 U/L
  Gamma Glutamyl Transferase Observed Value, Mean: 84.6 U/L
  Gamma Glutamyl Transferase Observed Value, Median: 52.5 U/L
Week 4
  ALT >10% decrease from Baseline, % of subjects: (65.0%)
  ALT >10% decrease from Baseline, n subjects: 26
  ALT >10% increase from Baseline, % of subjects: (15.0%)
  ALT >10% increase from Baseline, n subjects: 6
  ALT Within 10% of Baseline, % of subjects: (20.0%)
  ALT Within 10% of Baseline, n subjects: 8
  AST >10% decrease from Baseline, % of subjects: (65.0%)
  AST >10% decrease from Baseline, n subjects: 26
  AST >10% increase from Baseline, % of subjects: (20.0%)
  AST >10% increase from Baseline, n subjects: 8
  AST Within 10% of Baseline, % of subjects: (15.0%)
  AST Within 10% of Baseline, n subjects: 6
  Albumin >10% decrease from Baseline, % of subjects: (7.5%)
  Albumin >10% decrease from Baseline, n subjects: 3
  Albumin >10% increase from Baseline, % of subjects: (5.0%)
  Albumin >10% increase from Baseline, n subjects: 2
  Albumin Within 10% of Baseline, % of subjects: (87.5%)
  Albumin Within 10% of Baseline, n subjects: 35
  Alkaline Phosphatase >10% decrease from Baseline, % of subjects: (55.0%)
  Alkaline Phosphatase >10% decrease from Baseline, n subjects: 22
  Alkaline Phosphatase >10% increase from Baseline, % of subjects: (5.0%)
  Alkaline Phosphatase >10% increase from Baseline, n subjects: 2
  Alkaline Phosphatase Within 10% of Baseline, % of subjects: (40.0%)
  Alkaline Phosphatase Within 10% of Baseline, n subjects: 16
  Bilirubin >10% decrease from Baseline, % of subjects: (47.5%)
  Bilirubin >10% decrease from Baseline, n subjects: 19
  Bilirubin >10% increase from Baseline, % of subjects: (35.0%)
  Bilirubin >10% increase from Baseline, n subjects: 14
  Bilirubin Within 10% of Baseline, % of subjects: (17.5%)
  Bilirubin Within 10% of Baseline, n subjects: 7
  ALKALINE PHOSPHATASE Change from Baseline, Median: −15.5 U/L
  ALT Change from Baseline, Mean: −9.2 U/L
  ALT Change from Baseline, Median: −7 U/L
  ALT Observed Value, Mean: 34.9 U/L
  ALT Observed Value, Median: 29 U/L
  AST Change from Baseline, Mean: −3.5 U/L
  AST Change from Baseline, Median: −5 U/L
  AST Observed Value, Mean: 29.1 U/L
  AST Observed Value, Median: 26.5 U/L
  Albumin Change from Baseline, Mean: -0.7 g/L
  Albumin Change from Baseline, Median: -1 g/L
  Albumin Observed Value, Mean: 41.7 g/L
  Albumin Observed Value, Median: 42 g/L
  Alkaline Phosphatase Change from Baseline, Mean: −20.5 U/L
  Alkaline Phosphatase Observed Value, Mean: 115.8 U/L
  Alkaline Phosphatase Observed Value, Median: 101 U/L
  Bilirubin Change from Baseline, Mean: -1.10 µmol/L
  Bilirubin Change from Baseline, Median: -1.5 µmol/L
  Bilirubin Observed Value, Mean: 11.31 µmol/L
  Bilirubin Observed Value, Median: 9.55 µmol/L
  Gamma Glutamyl Transferase Change from Baseline, Mean: 1.7 U/L
  Gamma Glutamyl Transferase Change from Baseline, Median: −0.5 U/L
  Gamma Glutamyl Transferase Observed Value, Mean: 78.9 U/L
  Gamma Glutamyl Transferase Observed Value, Median: 53.5 U/L
Week 8
  ALT >10% decrease from Baseline, % of subjects: (65.0%)
  ALT >10% decrease from Baseline, n subjects: 26
  ALT >10% increase from Baseline, % of subjects: (17.5%)
  ALT >10% increase from Baseline, n subjects: 7
  ALT Within 10% of Baseline, % of subjects: (17.5%)
  ALT Within 10% of Baseline, n subjects: 7
  AST >10% decrease from Baseline, % of subjects: (60.0%)
  AST >10% decrease from Baseline, n subjects: 24
  AST >10% increase from Baseline, % of subjects: (20.0%)
  AST >10% increase from Baseline, n subjects: 8
  AST Within 10% of Baseline, % of subjects: (20.0%)
  AST Within 10% of Baseline, n subjects: 8
  Albumin >10% decrease from Baseline, % of subjects: (2.5%)
  Albumin >10% decrease from Baseline, n subjects: 1
  Albumin >10% increase from Baseline, % of subjects: (2.5%)
  Albumin >10% increase from Baseline, n subjects: 1
  Albumin Within 10% of Baseline, % of subjects: (95.0%)
  Albumin Within 10% of Baseline, n subjects: 38
  Alkaline Phosphatase >10% decrease from Baseline, % of subjects: (62.5%)
  Alkaline Phosphatase >10% decrease from Baseline, n subjects: 25
  Alkaline Phosphatase >10% increase from Baseline, % of subjects: (5.0%)
  Alkaline Phosphatase >10% increase from Baseline, n subjects: 2
  Alkaline Phosphatase Within 10% of Baseline, % of subjects: (32.5%)
  Alkaline Phosphatase Within 10% of Baseline, n subjects: 13
  Bilirubin >10% decrease from Baseline, % of subjects: (50.0%)
  Bilirubin >10% decrease from Baseline, n subjects: 20
  Bilirubin >10% increase from Baseline, % of subjects: (25.0%)
  Bilirubin >10% increase from Baseline, n subjects: 10
  Bilirubin Within 10% of Baseline, % of subjects: (25.0%)
  Bilirubin Within 10% of Baseline, n subjects: 10
  ALKALINE PHOSPHATASE Change from Baseline, Median: −18.5 U/L
  ALT Change from Baseline, Mean: −10.2 U/L
  ALT Change from Baseline, Median: −5.5 U/L
  ALT Observed Value, Mean: 33.9 U/L
  ALT Observed Value, Median: 26 U/L
  AST Change from Baseline, Mean: −5.1 U/L
  AST Change from Baseline, Median: −5 U/L
  AST Observed Value, Mean: 27.5 U/L
  AST Observed Value, Median: 23.5 U/L
  Albumin Change from Baseline, Mean: -0.7 g/L
  Albumin Change from Baseline, Median: -1 g/L
  Albumin Observed Value, Mean: 41.7 g/L
  Albumin Observed Value, Median: 42 g/L
  Alkaline Phosphatase Change from Baseline, Mean: −24.3 U/L
  Alkaline Phosphatase Observed Value, Mean: 112.0 U/L
  Alkaline Phosphatase Observed Value, Median: 94 U/L
  Bilirubin Change from Baseline, Mean: -1.60 µmol/L
  Bilirubin Change from Baseline, Median: -0.95 µmol/L
  Bilirubin Observed Value, Mean: 10.81 µmol/L
  Bilirubin Observed Value, Median: 7.75 µmol/L
  Gamma Glutamyl Transferase Change from Baseline, Mean: −5.7 U/L
